Measured values published in patent US10183011B2, “Anti-depression compounds” (Board of Regents of the University of Texas System, priority 2009, dated 2019).
Entries after “also recorded” stand apart in the source; their conditions may differ.

Experiments:
U2OS cells = assay: Calcium ionophore A23187-induced loss of mitochondrial membrane potential (TMRM dye release); type: cell-based
Text: FIG. 22A, FIG. 22B, FIG. 22C, FIG. 22D, FIG. 22E and FIG. 22F: Example 45 Compound Preserves Mitochondrial Membrane Potential in Parallel to Proneurogenic Activity U2OS cells were loaded with tetramethylrhodamine methyl ester (TMRM) dye and then exposed to the calcium ionophore A23187 either in the presence or absence of test compounds. Example 45 Compound (FIG. 22A) preserved mitochondrial membrane potential following exposure to the calcium ionophore A23187 in a dose-dependent manner. The protective effect of P7C3 was enantiomeric specific. […] Each compound was evaluated in triplicate with similar results.
Extensive evidence pioneered by the laboratory of Xiaodong Wang has shown that an intrinsic pathway leading to programmed cell death emanates from mitochondria (Liu et al., Cell 1996, 86, 147-157; Yang et al., Science 1997, 275, 1129-1132). With the help of the Wang lab, assays were established to test whether Example 45 Compound might protect mitochondria from calcium-induced dissolution (Distelmaier et al., Cytometry A 2008, 73, 129-138). Tetramethylrhodamine methyl ester (TMRM) is a cell-permeant, cationic red-orange fluorescent dye that is readily sequestered by active mitochondria. When loaded with TMRM dye, vehicle-only treated cells released the dye within 15 minutes of exposure to the calcium ionophore A23187. By contrast, dye release was prevented in cells exposed to as little as […] of Example 45 Compound (FIG. 18A).
Since P7C3 ameliorates the death of newborn neurons in the dentate gyrus in living mice, it is possible that its function might relate to mitochondrial integrity. Assays were established to test whether P7C3 might protect cultured U2OS cells from calcium-induced mitochondrial dissolution (Distelmaier et al., Cytometry A 2008, 73, 129-138). Tetramethylrhodamine methylester (TMRM) dye is sequestered by active mitochondria, and, when loaded with TMRM, vehicle-treated cells released the dye within 15 rain of exposure to the calcium ionophor A23 187.

G93A-SOD1 mutant mice = assay: Accelerating rotarod test in G93A-SOD1 mice, treatment from day 80; type: in vivo, mouse; conditions: 20 mg/kg/day i.p. from day 80
Experimental: FIG. 35. P7C3A20 preserves performance in the accelerating rotarod test when administered at the time of disease onset to G93A-SOD1 mutant mice. Treatment of G93A-SOD1 mutant mice with 20 mg/kg/d of P7C3A20, P7C3 or Dimebon, or the appropriate vehicle, was initiated on day 80, with 20 mice per group. All compounds were administered at 20 mg/kg/day i.p. in divided doses. […] Only sibling pairs were analyzed at each time point. By week 16, there were 13 compound-vehicle pairs remaining in each group. […] All testing and analysis was performed blind to treatment group.
Having observed evidence of compound-mediated protection of spinal cord motor neurons, we next sought to determine whether motor performance might also be protected in these mice. Motor performance was monitored by the accelerating rotarod task standardly employed for evaluation of rodent models of ALS. We again initiated administration of P7C3, P7C3A20 or Dimebon on day 80, at 20 mg/kg/day, starting with no less than 20 mice per treatment group. Each animal in each group had its own sibling-matched vehicle control, and testing was conducted blind to treatment group. Rotarod training was initiated on day 50 for 2 days, and repeated weekly testing was conducted every 7 days thereafter. Each mouse was subjected to four trials of 600 seconds each, with a 20 minute recovery break between each trial. The latency time to fall was averaged across all 4 trials.
Beginning on day 50, mice were trained on the accelerating rotarod using Colombia Instruments Rotamex-5. Training consisted of mice being placed on a rotarod moving at 5 rpm for 300 seconds. Mice were trained to stay on the rotarod for the entire 300 seconds. If a mouse fell, it was placed back on the rotarod and the 300 second trial was started again. Training took place on two consecutive days. On day 52, mice ran their first full rotarod test, as described in Current Protocols for Neuroscience. The rotarod began at 4 rpm and accelerated to 40 rpm over 600 seconds, increasing by 1.25 rpm every 20 seconds. The time to fall was automatically recorded. […]

[1] = Plasma, brain and spinal cord levels in G93A-SOD1 study (LC/MS/MS); type: in vivo, mouse; conditions: 20 mg/kg/day for 21 days; for spinal cord accumulation relative to other compound: six hours after last injection
Experimental: FIG. 37. Plasma, brain and spinal cord levels of P7C3A20, P7C3 and Dimebon. Five mice for each compound group were treated for 21 days with 20 mg/kg/day of the compound, starting on day 85. Blood, brain and spinal cord were harvested six hours after the last injection and compound levels were measured by LC/MS/MS. Concentrations are presented as mean±SEM.

## OC(CNc1ccccc1)Cn1c2ccc(Br)cc2c2cc(Br)ccc21 (centres unmarked) [Example P7C3]
U2OS cells; U2OS cells
  lowest concentration that blocked TMRM dye release: ≤ 10 nM
G93A-SOD1 mutant mice
  accelerating rotarod performance: insufficiently active to preserve motor function
[1]
  entry into brain and spinal cord: able to enter both the brain and spinal cord

## OC(CNc1ccccc1)Cn1c2ccc(Br)cc2c2cc(Br)ccc21 (centres unmarked) [Example 45 Compound]
U2OS cells
  lowest amount that prevented TMRM dye release: ≤ 10 ng

## COc1cccc(NCC(F)Cn2c3ccc(Br)cc3c3cc(Br)ccc32)c1 (centres unmarked) [Example P7C3A20, N-(3-(3,6-dibromo-9H-carbazol-9-yl)-2-fluoropropyl)-3-methoxyaniline]
U2OS cells; TMRM dye
  preservation of mitochondrial membrane potential: protection of mitochondrial membrane permeability was observed at an enhanced level; also recorded: exhibited dye release protection at all doses tested
G93A-SOD1 mutant mice
  accelerating rotarod performance: showed significantly better performance
[1]
  entry into brain and spinal cord: able to enter both the brain and spinal cord
  spinal cord accumulation relative to other compound: less than one-twentieth the concentration of P7C3

## Cc1ccc2c(c1)c1c(n2CCc2ccc(C)nc2)CCN(C)C1 [Dimebon, 2,3,4,5-Tetrahydro-2,8-dimethyl-5-(2-(6-methyl-3-pyridyl)ethyl)-1H-pyrido(4,3-b)indole, reference compound]
G93A-SOD1 mutant mice
  accelerating rotarod performance: insufficiently active to preserve motor function
[1]
  entry into brain and spinal cord: able to enter both the brain and spinal cord
  spinal cord accumulation relative to other compound: comparable levels of spinal cord accumulation to P7C3A20
